*1 amine or outer side, *2 acyl side, *3 side chain or, on linkers, in order; H or OH if unused. Where a SMILES comes first, the peptide text is derived from it. Bridges are numbered along the chain shown (N, C = ends). [ ]: non-standard residue; d: D form. 2Nal = N[C@@H](Cc1ccc2ccccc2c1)C(=O)O; AEF = NCCOc1ccc(C[C@H](N)C(=O)O)cc1; X1 = O=C(Cc1ccc(CN[*:1])cc1)[*:2]; 3Pal = N[C@@H](Cc1cccnc1)C(=O)O; Cit = NC(=O)NCCC[C@H](N)C(=O)O; αMeL = CC(C)C[C@](C)(N)C(=O)O; Orn = NCCC[C@H](N)C(=O)O; Dab = NCC[C@H](N)C(=O)O
Key:
[1] = Peptide stability in simulated intestinal fluid (SIF); assay type: in vitro ADME; conditions: 37 °C, pH 6.8, porcine pancreatin 10 g/L, 10 µM; for remaining at 1 h, 10 µM / remaining at 4 h, 10 µM: pig, simulated intestinal fluid (SIF) with porcine pancreatin; for remaining at 4 h, 10 µM: read-out: SIF (% remaining 4 h)
Experimental: SGF was prepared by dissolving sodium chloride (0.2 g) in 50 mL of water. A volume of 0.7 mL of 10 M HCl was added to adjust the pH of the solution to 1.2 and the volume made up to 100 mL with water. […] SIF was prepared by dissolving monobasic potassium phosphate (0.68 g) in 50 mL of water and adjusting the pH to 6.8 with 1 M NaOH. The volume was subsequently made up to 100 mL with water. 200 mg porcine pancreatin (P1625, Sigma Aldrich) was gently dissolved into 20 mL preheated (37 °C) solution (10 g/L) immediately prior to the incubation.
The incubation was performed at 37 °C with gentle shaking. […] After the last timepoint, the sampling plate was mixed for 10 min on a shaking table and centrifuged 10 min at 2200 g. 70 µL resulting supernatant was diluted with 150 µL water, mixed and centrifugated before analysis by liquid chromatography high resolution mass spectrometry. […] Percent remaining at each timepoint was calculated relative to timepoint zero based on absolute peak areas.
Compounds with a SIF stability (after 4 h) above 70% are considered highly SIF stable.

[2] = target: T1, human IL-23R (Homo sapiens, UniProt Q5VWK5); test: biochemical; conditions: for Emax: read-out: % displacement (hIL-23R binding)
T1 sequence (Q5VWK5 22-629): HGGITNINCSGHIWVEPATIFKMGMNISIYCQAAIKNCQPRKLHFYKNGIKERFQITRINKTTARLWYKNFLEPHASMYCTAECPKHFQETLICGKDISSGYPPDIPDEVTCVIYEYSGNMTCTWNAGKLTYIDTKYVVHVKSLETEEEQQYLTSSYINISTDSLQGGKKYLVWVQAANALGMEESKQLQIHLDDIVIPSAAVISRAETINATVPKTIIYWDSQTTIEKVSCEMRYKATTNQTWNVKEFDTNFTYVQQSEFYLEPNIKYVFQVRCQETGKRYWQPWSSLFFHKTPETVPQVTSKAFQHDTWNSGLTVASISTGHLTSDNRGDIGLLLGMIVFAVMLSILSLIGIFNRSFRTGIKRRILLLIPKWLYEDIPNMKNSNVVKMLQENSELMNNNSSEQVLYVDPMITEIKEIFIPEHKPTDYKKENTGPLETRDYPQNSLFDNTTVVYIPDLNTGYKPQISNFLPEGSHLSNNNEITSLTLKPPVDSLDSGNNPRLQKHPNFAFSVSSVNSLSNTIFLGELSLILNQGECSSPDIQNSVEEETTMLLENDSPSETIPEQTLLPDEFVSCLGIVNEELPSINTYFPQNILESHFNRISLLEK
Excerpt: The compound binding affinity for IL-23R was estimated by the ability of compounds to displace a fluorophore-labelled reference compound from the human IL-23R. The assay principle relies on Bioluminescence Resonance Energy Transfer (BRET) between a fluorophore-labelled reference compound binding to the IL-23R part of a fusion protein consisting of the IL-23R fused to a Nanoluc luciferase enzyme (Nanoluc). The Nanoluc is placed in the N-terminus in close proximity to the binding domain of the ligand. Upon close proximity between the fluorophore of the fluorophore-labelled compound and the Nanoluc of the fusion protein, bioluminescence energy generated from conversion of a Nanoluc substrate, is transferred to the fluorophore resulting in an increase in BRET. In presence of an unlabelled compound, the unlabelled compound displaces the fluorophore-labelled peptide from its binding site resulting in a decrease in BRET. The concentration for which half of the fluorophore-labelled peptide is displaced by the unlabelled compound depends on the affinity of the compound for the IL-23R, and is termed the IC50 concentration.
The plasmid also contained a gene to confer resistance for the antibiotic hygromycin. A cell line stably expressing the Nluc-IL23R fusion protein was generated by transfection of HEK293 cells with the expression plasmid and selected with hygromycin for 3 weeks in Growth medium consisting of DMEM w/ Glutamax-I containing, 10% V/V FBS, 1% V/V P/S, 1 mM Sodium Pyruvate, and 1X NEAA, and 0.3 mg/mL hygromycin. The remaining cells were propagated and considered a stable expressing Nluc-IL23R fusion protein pool clone.
Cells expressing the Nluc-IL23R fusion protein were expanded in Growth medium and membranes prepared by homogenization of a cell pellet from 18 T175 flasks (4 °C in subsequent steps). The cell pellet was lysed Tris 10 mM, 7.5, 1 mM EDTA and protease inhibitors (Complete, Roche) and homogenized using a 15 mL glass-dounce by 50 strokes. The homogenate was spun at spin @1500 rpm for 10 min, the supernatant transferred to SV-34 tubes and spun at 40000g for 20 min at 4 °C to pellet the crude membranes. The supernatant was then removed, the pellet resuspended in 5 mL buffer containing 50 mM HEPES pH 7.4, 5 mM EGTA, and 5 mM MgCl2, and homogenized. Aliquots of the resuspended and homogenized membranes containing the Nluc-IL23R fusion protein were stored at -80 °C until use.
The plate was sealed with light impermeable plate seals, and incubated on an orbital shaker 400 rpm for 2 hours at room temperature. To determine the BRET ratio, the plate seal was removed and 25 µL of the Nanoluc substrate (Promega N1572) diluted 1:500 was added to each well and incubated for 1-2 minutes on an orbital shaker at 400 rpm. […] The BRET ratio was calculated as the fluorescence from the TAMRA/nanoluc bioluminescence.
Compound potency (IC50) and maximal displacement (% displacement) were estimated by computer-aided curve fitting using a 4-parameter logistic (4PL) non-linear model. […]
In this application, the inventors provide the data as IC50 values.

Structure (SMILES) | SIF (% remaining 1 h) [1] [%] | SIF (% remaining 4 h) [1] [%] | remaining at 1 h, 10 µM [1] [%] | remaining at 4 h, 10 µM [1] [%] | % displacement (hIL-23R binding) [2] [%] | IC50 [2] [nM] | Emax [2] [%]
CC(C)C[C@@H]1NC(=O)[C@H](Cc2c[nH]c3ccccc23)NC(=O)[C@H](Cc2c[nH]c3ccccc23)NC(=O)[C@@H]2CSCC(=O)CSC[C@H](NC(=O)[C@H]([C@@H](C)O)NC(=O)[C@@H](NC(=O)CN)CSCC(=O)CSC[C@@H](C(=O)N[C@@H](CO)C(N)=O)NC1=O)C(=O)N[C@@H](Cc1c[nH]c3ccccc13)C(=O)N[C@@H](CCC(=O)O)C(=O)N2 (single isomer, unassigned) [I1 (isomer 3), H-GC(1a)TC(2a)WEC(2a)WWLC(1a)S-[NH2], reference compound] | 0 | 0 | – | – | – | – | –
CSCC[C@H](NC(=O)[C@@H]1CSCC(=O)CSC[C@H](NC(=O)[C@@H](N)CCC(=O)O)C(=O)N[C@@H](Cc2c[nH]c3ccccc23)C(=O)N[C@@H](CC(C)C)C(=O)N[C@H]2CSCC(=O)CSC[C@H](NC(=O)[C@H](CC(N)=O)NC(=O)[C@H](CCCNC(=N)N)NC(=O)[C@H](Cc3ccc(O)cc3)NC(=O)[C@H](Cc3ccc(O)cc3)NC2=O)C(=O)N[C@@H](CC(N)=O)C(=O)N1)C(N)=O (single isomer, unassigned) [I4 (isomer 3), H-EC(4a)WLC(5a)YYRNC(5a)NC(4a)M-[NH2], reference compound] | 0 | 0 | – | – | – | – | –
CNC(=O)[C@H](Cc1cccnc1)NC(=O)[C@H](CCN)NC(=O)[C@@H]1CCC(=O)NCc2ccc(cc2)CC(=O)N[C@@H](C)C(=O)N[C@H]2CCC(=O)NCC[C@H](NC(=O)[C@H](CCC(N)=O)NC(=O)[C@H](Cc3c[nH]c4ccccc34)NC2=O)C(=O)N[C@@H](Cc2ccc(OCCN)cc2)C(=O)N[C@@H](Cc2ccc3ccccc3c2)C(=O)N[C@@](C)(CC(C)C)C(=O)N1 [Compound 20, [4-Aminomethyl-phenylacetyl](1c)*AE(2c)WQ[Dab](2c)[Y(2-aminoethoxy)][2-Nal][2-Me-Leu]E(1c)[Dab][3-(3-Pyridyl)-Ala]-[NHMe]] | – | – | 109 | 90 | 97 | 0.012 | –
CNC(=O)[C@H](Cc1cccnc1)NC(=O)[C@H](CCN)NC(=O)[C@@H]1CCC(=O)NCc2ccc(cc2)CC(=O)N[C@@H](Cc2ccccc2)C(=O)N[C@H]2CCC(=O)NCC[C@H](NC(=O)[C@H](CCC(N)=O)NC(=O)[C@H](Cc3c[nH]c4ccccc34)NC2=O)C(=O)N[C@@H](Cc2ccc(OCCN)cc2)C(=O)N[C@@H](Cc2ccc3ccccc3c2)C(=O)N[C@@](C)(CC(C)C)C(=O)N1 [Compound 21, [4-Aminomethyl-phenylacetyl](1c)*FE(2c)WQ[Dab](2c)[Y(2-aminoethoxy)][2-Nal][2-Me-Leu]E(1c)[Dab][3-(3-Pyridyl)-Ala]-[NHMe]] ([X1]FEWQ[Dab][AEF][2Nal][αMeL]E[Dab][3Pal]-NHMe; lactam 3-6, N-10) | – | – | 53 | – | – | 0.014 | 95
CNC(=O)[C@H](Cc1cccnc1)NC(=O)[C@H](CCN)NC(=O)[C@@H]1CCC(=O)NCc2ccc(cc2)CC(=O)N[C@@H](CO)C(=O)N[C@H]2CCC(=O)NCC[C@H](NC(=O)[C@H](CCCNC(N)=O)NC(=O)[C@H](Cc3c[nH]c4ccccc34)NC2=O)C(=O)N[C@@H](Cc2ccc(OCCN)cc2)C(=O)N[C@@H](Cc2ccc3ccccc3c2)C(=O)N[C@@](C)(CC(C)C)C(=O)N1 [Compound 26, [4-Aminomethyl-phenylacetyl](1c)*SE(2c)W[Cit][Dab](2c)[Y(2-aminoethoxy)][2-Nal][2-Me-Leu]E(1c)[Dab][3-(3-Pyridyl)-Ala]-[NHMe]] ([X1]SEW[Cit][Dab][AEF][2Nal][αMeL]E[Dab][3Pal]-NHMe; lactam 3-6, N-10) | – | – | – | 91 | – | 0.015 | 95
CNC(=O)[C@H](Cc1cccnc1)NC(=O)[C@H](CCN)NC(=O)[C@@H]1CCC(=O)NCc2ccc(cc2)CC(=O)N[C@@H](CO)C(=O)N[C@H]2CCC(=O)NCC[C@H](NC(=O)[C@H](CCCN)NC(=O)[C@H](Cc3c[nH]c4ccccc34)NC2=O)C(=O)N[C@@H](Cc2ccc(OCCN)cc2)C(=O)N[C@@H](Cc2ccc3ccccc3c2)C(=O)N[C@@](C)(CC(C)C)C(=O)N1 [Compound 28, [4-Aminomethyl-phenylacetyl](1c)*SE(2c)W[Orn][Dab](2c)[Y(2-aminoethoxy)][2-Nal][2-Me-Leu]E(1c)[Dab][3-(3-Pyridyl)-Ala]-[NHMe]] ([X1]SEW[Orn][Dab][AEF][2Nal][αMeL]E[Dab][3Pal]-NHMe; lactam 3-6, N-10) | – | – | – | 110 | 97 | – | –
CNC(=O)CC[C@@H]1NC(=O)[C@H](Cc2c[nH]c3ccccc23)NC(=O)[C@@H]2CCC(=O)NCC[C@H](NC1=O)C(=O)N[C@@H](Cc1ccc(OCCN)cc1)C(=O)N[C@@H](Cc1ccc3ccccc3c1)C(=O)N[C@@](C)(CC(C)C)C(=O)N[C@H](C(=O)N[C@@H](CCN)C(=O)N[C@@H](Cc1cccnc1)C(=O)NC)CCC(=O)NCc1ccc(cc1)CC(=O)N[C@@H](CO)C(=O)N2 [Compound 29, [4-Aminomethyl-phenylacetyl](1c)*SE(2c)W[Q(Me)][Dab](2c)[Y(2-aminoethoxy)][2-Nal][2-Me-Leu]E(1c)[Dab][3-(3-Pyridyl)-Ala]-[NHMe]] ([X1]SEWE(NHMe)[Dab][AEF][2Nal][αMeL]E[Dab][3Pal]-NHMe; lactam 3-6, N-10) | – | – | – | 92 | 96 | – | –
CNC(=O)[C@H](Cc1cccnc1)NC(=O)[C@H](CCN)NC(=O)[C@@H]1CCC(=O)NCc2ccc(cc2)CC(=O)N[C@@H](CO)C(=O)N[C@H]2CCC(=O)NCC[C@H](NC(=O)[C@H](CCC(=O)N(C)C)NC(=O)[C@H](Cc3c[nH]c4ccccc34)NC2=O)C(=O)N[C@@H](Cc2ccc(OCCN)cc2)C(=O)N[C@@H](Cc2ccc3ccccc3c2)C(=O)N[C@@](C)(CC(C)C)C(=O)N1 [Compound 30, [4-Aminomethyl-phenylacetyl](1c)*SE(2c)W[Q(2Me)][Dab](2c)[Y(2-aminoethoxy)][2-Nal][2-Me-Leu]E(1c)[Dab][3-(3-Pyridyl)-Ala]-[NHMe]] ([X1]SEWE(NMe2)[Dab][AEF][2Nal][αMeL]E[Dab][3Pal]-NHMe; lactam 3-6, N-10) | – | – | – | 94 | 104 | 0.018 | –

— patent publication EP4471049A1 (Zealand Pharma A/S, priority 2023, dated 2024)
